Laboratory results as given in patent US4153709A, “N-Heterocyclic ureas as immune regulants” (Eli Lilly and Company, priority 1977, dated 1979).
Like-named read-outs stand apart in the source and are kept apart here.

Columns and labels:
[1] = tested on: graft versus host reaction; assay: Graft versus host (GVH) reaction, spleen weight (Tables 20, 21); assay type: in vivo, mice (C57BL donors, F1 hybrid C57BL×C3H recipients)
Procedure: In this determination, […] (C57BL) mouse spleen cells are injected into mice of an F1 hybrid strain (C57BL×C3H). […] The injected cells, however, mount a reaction to the recipient's tissues due to the foreign C3H-derived antigens. As a consequence, the recipient's spleen becomes enlarged. Immunosuppressive therapy prevents or reduces this enlargement. Thus, spleen weights provide a measure of the GVH reaction and its reduction under immunosuppression.
Treated and GVH control animals receive an intraperitoneal injection of 1.2×10^9 splenic lymphocytes from the C57 donors. Spleens are weighed ten days later. Spleen weights derived from groups of recipient mice receiving genetically homologous, i.e., syngeneic cells (C57BL×C3H) provide normal control values for calculating percent inhibition in drug-treated groups. For example, mice given 13 daily topical doses of 1-(4,5,6,7-tetra-hydro-2-benzothiazolyl)-3-phenyl urea show a 62% reduction in GVH reaction relative to controls, as set forth in Table 20.
Using this procedure, three compounds from the above useful in the processes of this invention have been compared with several reference immunosuppressive drugs. Treatment levels defining the 50 percent inhibitory dose have been determined.

[2] = tested on: antibody to sheep red blood cells; assay: 75 percent reduction of control antibody titer in mice by subcutaneous, percutaneous and oral routes (Table 16); assay type: in vivo, male Swiss mice; conditions: Mus musculus, Erythrocyte
Procedure: Subcutaneous, percutaneous, and oral activity have been achieved as indicated in Table 16 which follows employing representative compounds from the above entitled application. […] Except as indicated, the tests were performed using groups of five 20-gram male Swiss mice injected with 5×10^7 sheep red blood cells intravenously for each drug level. Ten (daily) administrations of drug were made commencing three days prior to red blood cell injection. On the day following the final treatment (7 days after red blood cell injection) the animals were bled by cardiac puncture, the sera from each five-mouse-group were pooled, and antibody titers of these serum pools and corresponding serum pools from control (untreated) mouse groups were determined. The results are expressed as the minimum drug dose effecting 75 percent reduction of control antibody titer: […]

[3] = tested on: antibody response to sheep blood cells (hemaglutination titer); assay: Immune regulating test: suppression of hemaglutination titer by 4-fold factor in mice (i.p. drug, i.p. sheep blood cells), Tables 1-15; assay type: in vivo, Swiss mice; conditions: Mus musculus, ip, 192 h, × 3, intraperitoneal, minimum dose to suppress the hemaglutination titer by a 4-fold factor, 8 days after antigen, read-out: Immuno-Suppressant ED4-Fold
Procedure: The ability of compounds according to the above formulas to alter immune mechanisms in a host animal was measured by their activity according to the following test. Groups of five 20-gram Swiss mice were injected intraperitoneally with standardized suspensions of an antigen--in this instance sheep blook cells. […] Eight days after injection of the antigen, the mice were bled and the sera from each group pooled. Antibody determinations were made on the serum pools by a hemaglutination pattern procedure and comparisons made between treated and control animals. In Tables 1-18 which follow, the activity of the compounds listed therein is given in terms of the minimum dose of drug necessary to suppress the hemaglutination titer by a 4-fold factor in the treated mice as compared with control titers.

[4] = sc, subcutaneous, × 10 daily doses commencing 3 days before antigen i.v., read-out: Lowest Dose Producing 75% Immunosuppression, Subcutaneous
[5] = percutaneous, × 10 daily doses commencing 3 days before antigen i.v., read-out: Lowest Dose Producing 75% Immunosuppression, Percutaneous
[6] = oral, × 10 daily doses commencing 3 days before antigen i.v., read-out: Lowest Dose Producing 75% Immunosuppression, Oral

Row | SMILES | minimal effective dose [3] | also measured
1 | C[C@]12CCC(=O)C=C1CC[C@@H]1[C@@H]2C(=O)C[C@@]2(C)[C@H]1CC[C@]2(O)C(=O)CO [Cortisone, reference compound] | – | Percent GVH Inhibition ([1]; 1.56 mg/kg × 13, s.c.): 48%; Percent GVH Inhibition ([1]; 3.12 mg/kg × 13, s.c.): 82%; minimal effective dose [2, 4]: 25 mg/kg; minimal effective dose ([2]; oral, × 10, **antigen given intraperitoneally, read-out: Lowest Dose Producing 75% Immunosuppression, Oral): 200 to 400 mg/kg; minimal effective dose [2, 5]: 50 mg/kg
2 | Cc1cc2nc(NC(=O)Nc3ccccc3C)[nH]c2cc1C [Table 5: o-tolyl, CH3, CH3] | 12.5 mg/kg | –
3 | O=C(Nc1ccccc1)Nc1nc2ccccc2s1 [Table 11: phenyl, H, S, 1-(2-benzothiazolyl)-3-phenyl urea] | 6.2 mg/kg | Percent GVH Inhibition ([1]; 0.8 mg/kg × 13, s.c.): 29%; Percent GVH Inhibition ([1]; 1.6 mg/kg × 13, oral): 46%; Percent GVH Inhibition ([1]; 1.6 mg/kg × 13, s.c.): 54%; Percent GVH Inhibition ([1]; 3.12 mg/kg × 13, oral): 64%; minimal effective dose [2, 4]: 1 mg/kg; minimal effective dose [2, 6]: 25 mg/kg; minimal effective dose [2, 5]: 6.2 to 12.5 mg/kg
4 | O=C(Nc1ccccc1)Nc1nc2c(ccc3ccccc32)s1 [Table 14: phenyl] | < 12.5 mg/kg | –
5 | Cc1cc2nc(NC(=O)Nc3cccc(Cl)c3)sc2cc1C | 100 mg/kg | –
6 | Cn1c(NC(=O)Nc2cccc(Cl)c2)nc2ccccc21 [Table 8: m-chlorophenyl, methyl] | 6.2 mg/kg | –
7 | O=C(Nc1nc2cc(Cl)ccc2[nH]1)Nc1ccccc1Cl [Table 2: o-chlorophenyl] | 100 mg/kg | –
8 | Cc1cc2nc(NC(=O)Nc3ccccc3Cl)sc2cc1C | < 100 mg/kg | –
9 | COc1ccc2nc(NC(=O)Nc3ccc(Br)cc3)sc2c1 [Table 11: p-bromophenyl, 6-CH3 O, S] | 100 mg/kg | –
10 | O=C(Nc1nc2c(ccc3ccccc32)s1)Nc1cccc2ccccc12 [Table 14: α-naphthyl] | 3.1 mg/kg | –
11 | O=C(Nc1cccc(Cl)c1)Nc1nc2c(Cl)cccc2s1 [Table 11: m-chlorophenyl, 4-Cl, S] | < 50 mg/kg | –
12 | Cc1ccc(NC(=O)Nc2nc3ccccc3[nH]2)cc1 [Table 1: p-tolyl, H] | 6.2 mg/kg | –
13 | Cc1cc2nc(NC(=O)Nc3cc(Cl)ccc3Cl)[nH]c2cc1C [Table 5: 2,5-dichlorophenyl, CH3, CH3] | < 25 mg/kg | –
14 | O=C(Nc1nc2cc(Cl)ccc2[nH]1)Nc1ccccc1F [Table 2: o-fluorophenyl] | < 100 mg/kg | –
15 | O=C(Nc1nc2c([N+](=O)[O-])cccc2[nH]1)Nc1ccccc1F [Table 6: 4(7), o-fluorophenyl] | 3.1 mg/kg | –
16 | Cc1ccc(NC(=O)Nc2nc3ccccc3s2)cc1 [Table 11: p-tolyl, H, S] | 100 mg/kg | –
17 | O=C(Nc1nc2c(ccc3ccccc32)[nH]1)Nc1cccc2ccccc12 [Table 10: α-naphthyl] | > 6.2 mg/kg | –
18 | COc1ccc2nc(NC(=O)Nc3ccc(Cl)cc3)sc2c1 [Table 11: p-chlorophenyl, 6-CH3 O, S] | < 50 mg/kg | –
19 | COc1ccc(NC(=O)Nc2nc3cc(C)c(C)cc3[nH]2)cc1 [Table 5: p-anisyl, CH3, CH3] | 12.5 mg/kg | –
20 | O=C(Nc1nc2cc(Cl)ccc2[nH]1)Nc1cccc2ccccc12 [Table 2: α-naphthyl] | 6.2 mg/kg | –
21 | O=C(Nc1ccccc1)Nc1nc2c(s1)CCCC2 [Table 13: phenyl, 1-(4,5,6,7-tetrahydro-2-benzothiazolyl)-3-phenyl urea] | 25 mg/kg | Percent GVH Inhibition ([1]; 50 mg/kg × 13, oral): 41%; Percent Inhibition of GVH reaction ([1]; 100 mg/kg × 13, daily topical): 62%; Mg Spleen/g Body Weight ± S.E. ([1]; 100 mg/kg × 13, daily topical, GVH control 11.03 ± 0.35, syn. control 5.20 ± 0.37): 7.42 ± 0.63 Mg Spleen/g Body Weight; Percent GVH Inhibition ([1]; 100 mg/kg × 13, oral): 54%; minimal effective dose [2, 4]: 12.5 mg/kg; minimal effective dose [2, 6]: 25 to 100 mg/kg; minimal effective dose [2, 5]: 3.1 mg/kg
22 | O=C(Nc1ccc(F)cc1)Nc1nc2cc(Cl)ccc2[nH]1 [Table 2: p-fluorophenyl] | < 12.5 mg/kg | –
23 | Cc1ccccc1NC(=O)Nc1nc2ccccc2[nH]1 [Table 1: o-tolyl, H] | 25 mg/kg | –
24 | Cn1c(NC(=O)Nc2ccc(Cl)cc2)nc2ccccc21 [Table 8: p-chlorophenyl, methyl] | > 50 mg/kg | –
25 | Cc1cc2nc(NC(=O)Nc3ccccc3)[nH]c2cc1C [Table 5: phenyl, CH3, CH3] | 12.5 mg/kg | –
26 | COc1ccccc1NC(=O)Nc1nc2ccccc2s1 [Table 11: o-anisyl, H, S] | 50 mg/kg | –

Row | SMILES | minimal effective dose [3] | also measured
27 | Cc1cccc(NC(=O)Nc2nc3cc(C)c(C)cc3[nH]2)c1 [Table 5: m-tolyl, CH3, CH3] | 12.5 mg/kg | –
28 | Cc1cccc(NC(=O)Nc2nc3cc(Cl)ccc3[nH]2)c1 [Table 2: m-tolyl] | 25 mg/kg | –
29 | O=C(Nc1ccc(F)cc1)Nc1nc2cc3ccccc3cc2[nH]1 [Table 9: p-fluorophenyl] | > 25 mg/kg | –
30 | Cc1cc2nc(NC(=O)Nc3ccc(Br)cc3)[nH]c2cc1C [Table 5: p-bromophenyl, CH3, CH3] | 12.5 mg/kg | –
31 | O=C(Nc1ccccc1)Nc1nc2c(Cl)cccc2s1 [Table 11: phenyl, 4-Cl, S] | < 12.5 mg/kg | –
32 | O=C(Nc1ccccc1)Nc1nc2c(ccc3ccccc32)[nH]1 [Table 10: phenyl] | 50 mg/kg | –
33 | O=C(Nc1nc2ccccc2s1)Nc1cc(Cl)ccc1Cl [Table 11: 2,5-dichlorophenyl, H, S] | 12.5 mg/kg | –
34 | CCOC(=O)c1ccc2[nH]c(NC(=O)Nc3ccc(F)cc3)nc2c1 [Table 3: p-fluorophenyl] | 25 mg/kg | –
35 | O=C(Nc1cccc(C(F)(F)F)c1)Nc1nc2c(ccc3ccccc32)s1 [Table 14: m-trifluoromethylphenyl] | < 6.2 mg/kg | –
36 | O=C(Nc1ccccc1)Nc1nc2cc3ccccc3cc2[nH]1 [Table 9: phenyl] | 25 mg/kg | –
37 | O=C(Nc1nc2ccc3ccccc3c2s1)Nc1cccc2ccccc12 [Table 15: α-naphthyl] | 0.4 mg/kg | –
38 | CN(C(=O)Nc1cccc2ccccc12)c1nc2ccccc2s1 [Table 12: α-naphthyl] | 50 mg/kg | –
39 | Cc1cc2nc(NC(=O)Nc3cccc4ccccc34)[nH]c2cc1C [Table 5: α-naphthyl, CH3, CH3] | 50 mg/kg | –
40 | O=C(Nc1ccccc1)Nc1nc2ccccc2[nH]1 [Table 1: phenyl, H, 1-(2-benzimidazolyl)-3-phenyl urea] | 12.5 mg/kg | minimal effective dose ([2]; sc, subcutaneous, *seven doses, once daily, commencing the day of antigen administration, read-out: Lowest Dose Producing 75% Immunosuppression, Subcutaneous): 31.5 mg/kg
41 | Cc1ccc(NC(=O)Nc2nc3c(ccc4ccccc43)s2)cc1 [Table 14: p-tolyl] | 6.2 mg/kg | –
42 | O=C(Nc1ccc(F)cc1)Nc1nc2c(ccc3ccccc32)[nH]1 [Table 10: p-fluorophenyl] | 25 mg/kg | –
43 | Cc1ccccc1NC(=O)Nc1nc2ccccc2s1 [Table 11: o-tolyl, H, S] | < 50 mg/kg | –
44 | CN(C(=O)Nc1cccc(Cl)c1)c1nc2ccccc2[nH]1 [Table 7: m-chlorophenyl, H] | 25 mg/kg | –
45 | COc1ccc2nc(NC(=O)Nc3cccc(Cl)c3)sc2c1 [Table 11: m-chlorophenyl, 6-CH3 O, S] | 12.5 mg/kg | –
46 | O=C(Nc1nc2ccccc2[nH]1)Nc1cccc2ccccc12 [Table 1: α-naphthyl, H, N-(2-Benzimidazolyl)-N'-naphthylurea] | 3.1 mg/kg | –
47 | O=C(Nc1ccc(F)cc1)Nc1nc2ccccc2s1 [Table 11: p-fluorophenyl, H, S] | < 25 mg/kg | –
48 | O=C(Nc1ccccc1)Nc1nc2c([N+](=O)[O-])cccc2[nH]1 [Table 6: 4(7), phenyl] | 25 mg/kg | –
49 | CN(C(=O)Nc1cccc2ccccc12)c1nc2ccccc2[nH]1 [Table 7: α-naphthyl, H] | 25 mg/kg | –
50 | O=C(Nc1nc2ccccc2[nH]1)Nc1ccccc1F [Table 1: o-fluorophenyl, H] | 1.6 mg/kg | –
51 | O=C(Nc1ccc(Cl)c(Cl)c1)Nc1nc2c(ccc3ccccc32)s1 [Table 14: 3,4-dichlorophenyl] | 3.1 mg/kg | –
